Converted amounts (≈) assume the structure as drawn. Like-named read-outs stand apart in the source and are kept apart here.
How the values were obtained:
Experiment in all cases: In vitro activity (MIC) against Gram-negative aerobic bacteria
Assay type in all cases: cell-based
[1] = test system: Acinetobacter baumannii ATCC 19606
[2] = test system: Klebsiella pneumoniae MMX 6854; ESBL
[3] = test system: Klebsiella pneumoniae MMX 4885; KPC
[4] = test system: Proteus mirabilis MMX 6442
[5] = test system: Enterobacter cloacae MMX 6089
[6] = test system: Klebsiella pneumoniae MMX 4683 (CDC ART2008030); ESBL, KPC-2
[7] = test system: Acinetobacter baumannii MMX 2587; MDR
[8] = test system: Acinetobacter baumannii MMX 2599
[9] = test system: Serratia marcescens MMX 6462
[10] = test system: Citrobacter freundii MMX 6284

## CC(C)(O/N=C(\C(=O)N[C@@H]1C(=O)N2C(C(=O)[O-])=C(C[n+]3ccccc3)CS[C@H]12)c1csc(N)n1)C(=O)O [CAZ, ceftazidime]
[1]; ATCC19606, read-out: MIC
  MIC: 8 µg/mL (≈ 14.6 µM)
[2]; read-out: MIC
  MIC: 0.5 µg/mL (≈ 0.915 µM)
[3]; read-out: MIC
  MIC: > 32 µg/mL
[4]; MMX6442, read-out: MIC
  MIC: ≤ 0.03 µg/mL
[5]; MMX6089, read-out: MIC
  MIC: 32 µg/mL (≈ 58.5 µM)
[6]; read-out: MIC
  MIC: > 32 µg/mL
[7]; read-out: MIC
  MIC: > 32 µg/mL
[8]; MMX2599, read-out: MIC
  MIC: 8 µg/mL (≈ 14.6 µM)
[9]; MMX6462, read-out: MIC
  MIC: 0.25 µg/mL (≈ 0.457 µM)
[10]; MMX6284, read-out: MIC
  MIC: > 32 µg/mL

## C[C@H](O)[C@H]1C(=O)N2C(C(=O)O)=C(S[C@@H]3CN[C@H](C(=O)N(C)C)C3)[C@H](C)[C@H]12 [JDB-1-200, (4R,5S,6S)-3-(((3S,5S)-5-(dimethylcarbamoyl)pyrrolidin-1-ium-3-yl)thio)-6-((S)-1-hydroxyethyl)-4-methyl-7-oxo-1-azabicyclo[3.2.0]hept-2-ene-2-carboxylate]
[1]; ATCC19606, read-out: MIC
  MIC: 0.5 µg/mL (≈ 1.3 µM)
[2]; read-out: MIC
  MIC: 0.5 µg/mL (≈ 1.3 µM)
[3]; read-out: MIC
  MIC: 0.5 µg/mL (≈ 1.3 µM)
[4]; MMX6442, read-out: MIC
  MIC: 1 µg/mL (≈ 2.61 µM)
[5]; MMX6089, read-out: MIC
  MIC: 0.12 µg/mL (≈ 0.313 µM)
[6]; read-out: MIC
  MIC: 1 µg/mL (≈ 2.61 µM)
[7]; read-out: MIC
  MIC: 32 µg/mL (≈ 83.4 µM)
[8]; MMX2599, read-out: MIC
  MIC: 0.12 µg/mL (≈ 0.313 µM)
[9]; MMX6462, read-out: MIC
  MIC: 0.5 µg/mL (≈ 1.3 µM)
[10]; MMX6284, read-out: MIC
  MIC: 1 µg/mL (≈ 2.61 µM)

## C[C@@H](O)[C@H]1C(=O)N2C(C(=O)O)=C(S[C@@H]3CN[C@H](C(=O)N(C)C)C3)[C@H](C)[C@H]12 [MEM, meropenem]
[1]; ATCC19606, read-out: MIC
  MIC: 2 µg/mL (≈ 5.22 µM)
[2]; read-out: MIC
  MIC: 0.25 µg/mL (≈ 0.652 µM)
[3]; read-out: MIC
  MIC: > 8 µg/mL
[4]; MMX6442, read-out: MIC
  MIC: 0.12 µg/mL (≈ 0.313 µM)
[5]; MMX6089, read-out: MIC
  MIC: 0.06 µg/mL (≈ 0.156 µM)
[6]; read-out: MIC
  MIC: > 8 µg/mL
[7]; read-out: MIC
  MIC: > 8 µg/mL
[8]; MMX2599, read-out: MIC
  MIC: 0.25 µg/mL (≈ 0.652 µM)
[9]; MMX6462, read-out: MIC
  MIC: 0.25 µg/mL (≈ 0.652 µM)
[10]; MMX6284, read-out: MIC
  MIC: > 8 µg/mL

## Cc1ncc([N+](=O)[O-])n1CCO [MET, metronidazole]
[1]; ATCC19606, read-out: MIC
  MIC: > 32 µg/mL
[2]; read-out: MIC
  MIC: > 32 µg/mL
[3]; read-out: MIC
  MIC: > 32 µg/mL
[4]; MMX6442, read-out: MIC
  MIC: > 32 µg/mL
[5]; MMX6089, read-out: MIC
  MIC: > 32 µg/mL
[6]; read-out: MIC
  MIC: > 32 µg/mL
[7]; read-out: MIC
  MIC: > 32 µg/mL
[8]; MMX2599, read-out: MIC
  MIC: > 32 µg/mL
[9]; MMX6462, read-out: MIC
  MIC: > 32 µg/mL
[10]; MMX6284, read-out: MIC
  MIC: > 32 µg/mL

## COc1c(N2C[C@@H]3CCCN[C@@H]3C2)c(F)cc2c(=O)c(C(=O)O)cn(C3CC3)c12 [MOX, moxifloxacin]
[1]; ATCC19606, read-out: MIC
  MIC: 0.25 µg/mL (≈ 0.623 µM)
[2]; read-out: MIC
  MIC: 0.5 µg/mL (≈ 1.25 µM)
[3]; read-out: MIC
  MIC: > 4 µg/mL
[4]; MMX6442, read-out: MIC
  MIC: 0.25 µg/mL (≈ 0.623 µM)
[5]; MMX6089, read-out: MIC
  MIC: 0.03 µg/mL (≈ 0.0747 µM)
[6]; read-out: MIC
  MIC: > 4 µg/mL
[7]; read-out: MIC
  MIC: > 4 µg/mL
[8]; MMX2599, read-out: MIC
  MIC: 0.12 µg/mL (≈ 0.299 µM)
[9]; MMX6462, read-out: MIC
  MIC: 0.12 µg/mL (≈ 0.299 µM)
[10]; MMX6284, read-out: MIC
  MIC: > 4 µg/mL

## CN[C@H](CC(C)C)C(=O)N[C@H]1C(=O)N[C@@H](CC(N)=O)C(=O)N[C@H]2C(=O)N[C@H]3C(=O)N[C@H](C(=O)N[C@H](C(=O)O)c4cc(O)cc(O)c4-c4cc3ccc4O)[C@H](O)c3ccc(c(Cl)c3)Oc3cc2cc(c3O[C@@H]2O[C@H](CO)[C@@H](O)[C@H](O)[C@H]2O[C@H]2C[C@](C)(N)[C@H](O)[C@H](C)O2)Oc2ccc(cc2Cl)[C@H]1O [VAN, vancomycin]
[1]; ATCC19606, read-out: MIC
  MIC: > 32 µg/mL
[2]; read-out: MIC
  MIC: > 32 µg/mL
[3]; read-out: MIC
  MIC: > 32 µg/mL
[4]; MMX6442, read-out: MIC
  MIC: > 32 µg/mL
[5]; MMX6089, read-out: MIC
  MIC: > 32 µg/mL
[6]; read-out: MIC
  MIC: > 32 µg/mL
[7]; read-out: MIC
  MIC: > 32 µg/mL
[8]; MMX2599, read-out: MIC
  MIC: > 32 µg/mL
[9]; MMX6462, read-out: MIC
  MIC: > 32 µg/mL
[10]; MMX6284, read-out: MIC
  MIC: > 32 µg/mL

## colistin
[1]
  MIC: 0.5 µg/mL
[2]
  MIC: 0.25 µg/mL
[3]
  MIC: 8 µg/mL
[4]
  MIC: >32 µg/mL
[5]
  MIC: 0.12 µg/mL
[6]
  MIC: 0.12 µg/mL
[7]
  MIC: 1 µg/mL
[8]
  MIC: 2 µg/mL
[9]
  MIC: >32 µg/mL
[10]
  MIC: 0.12 µg/mL
